Experimental findings from patent US8323971B2, “Differentiation of pluripotent cells into primary germ layer progenitors” (Cambridge Enterprise Limited, priority 2006, dated 2012) are described below.

What all share (assay type): cell-based, human
In one test the test system is H9 hESCs. As to the kind of experiment: Screening of culture conditions by immunostaining for Oct4, Sox2, Brachyury, Sox17. Particulars: for rescue of Oct4 expression under SB431542: added with SB431542. How it is done:
Table 2 and Table 3 show the screening of culture conditions for inducing mesoendoderm differentiation into CDM. H9 hESCs were grown for 7 days or more in CDM-BSA or CDM-PVA supplemented with different growth factors (Activin, BMP4, FGF2) or inhibitors (SU5402 for FGF, SB431542 for Activin/Nodal/TGFβ, BIO for βCatenin). Then, immunostaining analysis were used to determine the fractions of cells expressing the pluripotent marker Oct-4, neuroectoderm marker Sox2, the mesoderm marker Brachyury, and the endoderm marker Sox17. The quantities of expressing cells were divided into five arbitrary categories. 0 for absence of expression, VL for expressing cells <1%, L for expressing cells <5%, H for expressing cells >10%, VH for expressing cells >50%. IN red are indicated the conditions allowing the generation of mesendoderm cells expressing Brachyury or Sox17.
HESCs or differentiated progenitors were fixed for 20 minutes at 4° C. in 4% paraformaldehyde (PFA) and then washed three times in PBS. Cells were incubated for 20 minutes at room temperature in PBS containing 10% goat serum (Serotec) and subsequently incubated over night at 4° C. with primary antibody diluted in 1% goat serum in PBS as follows: SSEA-3 (1:100, Santa Cruz), SSAE-1 (1:25), Tra-1-60 (1:100, Santa CruZ), Oct-4 (1:100, Abcam ab18976 or SantaCruz), Sox2 (1:100, Abcam ab15830), Alkaline Phophatase (1:50, Abcam ab17989), Brachyury (1:100, Abcam ab20680 or RandD systems), Sox17 (RandD systems), FoxA2 (1:50, Abcam ab5074), GATA4 (1:250, Santa CruZ), GATA6 (1:200, Abcam ab22600 or Santa Cruz), Vent-2 (1:100, Abcam ab20913), Goosecoid (1:25, Abcam ab21059), Wnt3A (1:100, Abcam ab19925), CXCR4 (1:100, RanD Systems or Pharmingen). Nestin (1:200, Abcam ab5968), NCAM (1:100, Abcam ab8077), GFAP (ZZ), Neurofilament (ZZ), βIII Tubulin (ZZ), Glutamate (ZZ), N-Cadherin (1:100, Abcam ab18203 or ZZ). Cells were then washed three times in PBS and incubated with fluorescein-Isothiocyanate-conjugated anti-mouse IgG or IgM (Sigma 1:200 in 1% goat serum in PBS) or rat IgM (Jackson laboratory 1:300 in goat serum in PBS) or rabbit IgG (Jackson laboratory 1:200 in donkey serum in PBS) for two hours at room temperature. Unbound secondary antibody was removed by 3 washes in PBS. Hoechst 33258 was added to the first wash (Sigma 1:10000).
We then developed a method for inducing differentiation of hESCs into the three primary germ layers. Culture conditions inductive for mesoderm, endoderm and neuroectoderm were screened using an approach based on immunostaining analyses for the expression of proteins specifically expressed by pluripotent cells (Oct-4), neuroectoderm progenitors (Sox2 in absence of Oct4), endoderm progenitors (Sox17) and mesoderm progenitors (Brachyury). In summary, hESCs grown in CDM (CDM-BSA or hu-CDM) were plated on fibronectin in CDM-BSA/AF or CDM-PVA/AF. Then cocktails of growth factors (BMP4, FGF2, Activin) or chemical inhibitors (SU5402, SB431542) were added at different times and for different periods. After 7 to 10 days treatment, cells were fixed and then the expression of Oct-4/Sox2, Sox17 and Brachyury was analysed using immunostaining. The effect of three growth factors on the differentiation of hESCs into the primary germ layers was systematically analysed in our screen. We also studied the function of FGF and Activin signalling pathways in the maintenance of the pluripotent state by analysing the effect of the SU5402, a chemical inhibitor of FGF receptors, and the SB431542, a chemical inhibitor of Activin/TGFβ receptors.

The test system of another test is hESC derived EBs. The test can be described thus: Real time qPCR / RT-PCR of neuroectoderm and pluripotency markers in EBs. On the procedure: Four independent batches of WT and Lefty EBs were used for this analysis.
Five independent batches of DMSO- and SB431542-treated EBs were used for this analysis.
Lefty or Cerb-S expressing hESCs (as well as wildtype H9 and hSF-6 hESCs) were grown in 6 cm dishes (Corning), on mouse feeders. When confluent, hESCs were passaged using collagenase 1 mg/ml, as previously described (Schatten et al., 2005) and cultured in non-adherent conditions in CDM supplemented with either SU5402 (Calbiochem; 10 μM), SB431542 (Tocris; 20 μM), FGF-2 (R&D Systems; 12 ng/ml) or Noggin 200 ng/ml.
For some RT-PCR experiments, 50-100 ng of RNA were used for each RT-PCR reaction, using the OneStep RT-PCR kit according to manufacturer instructions. For real-time PCR, 1 μg RNA was reverse-transcribed using the Qiagen QuantiTect Reverse Transcription kit. 1/20-1/40 of each cDNA reaction was used for each real-time PCR reaction using the QuantiTect SYBR Green PCR Kit (Qiagen) according to manufacturer instructions. Relative quantification of gene expression was done by normalising the detected levels of gene of interest mRNA to those of the house-keeping GAPDH gene. All primers were purchased from Qiagen, with the exception of Xenopus Cerb-S: Forward 5′-[…]-3′ (SEQ ID NO: 1); Reverse 5′-ATGGTGCAGGGTAG TAGATG-3′ (SEQ ID NO: 2). Mouse Lefty2: Forward 5^r-[…]-3′ (SEQ ID NO: 3); Reverse 5′-[…]-3′ (SEQ ID NO: 4).
(In general: Quantitative PCR measures a nucleic acid by following its amplification.)

Test [1] concerns hESCs. As to the kind of experiment: Quantitation of β-tubulin III positive cells in monolayer differentiation. As to conditions: Lefty expressing hESCs, feeder free monolayer, CDM; FGF 12 ng/ml, Noggin 200 ng/ml, SU5402 20 μM. How it is done:
In some experiments, Wildtype and Lefty expressing hESCs were grown on fibronectin in FGF (12 ng/ml)/Activin (20 ng/ml) as a monolayer in the absence of a feeder layer (Vallier et al., 2005). When cells were 70-80% confluent medium was changed to either CDM only, CDM/FGF (12 ng/ml), CDM/Noggin 200 ng/ml, CDM/SU5402 and differentiated for 24 days.
To quantify the neurogenic potential of Lefty expressing hESCs, we cultured Lefty expressing hESCs in feeder-free conditions as a monolayer in CDM supplemented with Activin and FGF as described previously (Vallier et al., 2005). When cells reached 70-80% confluency, medium was changed to CDM only, CDM plus FGF (12 ng/ml) (CDM/FGF), CDM plus the BMP inhibitor Noggin (200 ng/ml) ([…]) (CDM/SU5402), and cells were cultured in these conditions for 24 days
The incidence of neural differentiation was determined by counting the number of β-tubulin III positive cells in random fields.

In test [2] the test system is hESCs. As to the kind of experiment: FACs fraction of cells expressing CXCR4 or PDGFR after mesendoderm induction in CDM PVA. As to conditions: Activin 100 ng/ml at third step with BMP4 and FGF2, CDM-PVA. How it is done: Fraction of cells expressing CXCR4 or PDGFa was determined using FACs after the third day in CDM+BMP+FGF+Activin.
hESCs grown in Feeder free and serum free conditions were harvested using 5 mg/ml collagenase IV then plated into plates pre-coated with fibronectin. hESCs were grown for 48 hours in CDM supplemented with Activin (10 ng/ml, RandD systems) and FGF2 (12 ng/ml, RandD systems). To induce extra-embryonic differentiation, hESCs were grown for 5 additional days in CDM supplemented with BMP4 (10 ng/ml, RandD systems). To obtain neuroectoderm progenitors, hESCs were grown in CDM or in CDM-PVA in the presence of SB431542 (10 μM Tocris) and FGF2 (12 ng/ml, RandD systems) for 7 additional days. The resulting cells were grown in non-adherent conditions for 10 days and then plated back for 5 additional days in CDM to obtain fully differentiated neuronal cells. To obtain mesendoderm precursors, hESCs were grown for 3 additional days in CDM-PVA in the presence of SU5402 (10 μM, Calbiochem) and Activin (5 ng/ml, RandD systems). […]
For detection of Tra-1-60, SSEA-3, N-CAM, CXCR4 and PDGFαRecptor adherent cells were washed twice in PBS then incubated for 20 minutes at 37 C in cell dissociation buffer (Invitrogen). […] Live cells identified by 7-AAD exclusion were analyzed for surface-marker expression using FACSCalibur.

Consider `O=C1Nc2cc(Br)ccc2/C1=C1/Nc2ccccc2/C1=N\O` [BIO, reference compound], for which the “rescue of Oct4 expression under SB431542” value in the test with H9 hESCs is recorded as “not sufficient to rescue the expression of Oct4”.
`NC(=O)c1ccc(-c2nc(-c3ccc4c(c3)OCO4)c(-c3ccccn3)[nH]2)cc1` [SB431542, 4-(5-Benzol[1,3]dioxol-5-yl-4-pyrldin-2-yl-1H-imidazol-2-yl)-benzamide hydrate]: the “Nestin, Sox3, and NGN2 expression (real time qPCR)” value in the test on hESC derived EBs (20 μM, EBs cultured 14-16 days, vs DMSO) is on record as “average increase”. Moreover, the “pluripotency marker Oct4 (RT-PCR time course)” value with hESC derived EBs (EBs harvested every 4 days over 16 days, compared to controls) is reported as “rapid down-regulation”. Moreover, in the test with hESC derived EBs (EBs in CDM 14-16 days, vs DMSO), the “Sox1 expression levels (real time qPCR)” value was “not a significant increase”. The “cells expressing the mesendoderm markers Bra, Sox17, FoxA2, and αFP” value with H9 hESCs (in the presence of SB431542) was “never observed”.
For `Cc1c[nH]c(C=C2C(=O)Nc3ccccc32)c1CCC(=O)O` [SU5402, 3-[3-(2-Carboxyethyl)-4-methylpyrrol-2-methylidenyl]-2-indolinone, reference compound], the “number of β-tubulin III positive cells compared to controls” value (from here on “number … compared to controls”) in the test on hESCs [1] was “significant reduction”.
With FGF2: human fibroblast growth factor 2, in the test with hESCs [1], the “number … compared to controls” value was “did not show a significant increase”. The “rescue of Oct4 expression under SB431542” value with H9 hESCs is reported as “not sufficient to rescue the expression of Oct4”.

B1: Noggin: the BMP inhibitor Noggin (protein, UniProt Q13253 28-232, looked up)
Noggin: QHYLHIRPAPSDNLPLVDLIEHPDPIFDPKEKDLNETLLRSLLGGHYDPGFMATSPPEDRPGGGGGAAGGAEDLAELDQLLRQRPSGAMPSEIKGLEFSEGLAQGKKQRLSKKLRRKLQMWLWSQTFCPVLYAWNDLGSRFWPRYVKVGSCFSKRSCSVPEGMVCKPSKSVHLTVLRWRCQRRGGQRCGWIPIQYPIISECKCSC
As to B1, the “number … compared to controls” value with hESCs [1] is “significant increase”.

B2: Activin: dimeric polypeptide stimulating the Activin/Nodal pathway (protein, UniProt P08476 311-426, looked up)
Inhibin beta A chain: GLECDGKVNICCKKQFFVSFKDIGWNDWIIAPSGYHANYCEGECPSHIAGTSGSSLSFHSTVINHYRMRGHSPFANLKSCCVPTKLRPMSMLYYDDGQNIIKKDIQNMIVEECGCS
modifications: Inhibin beta A chain
With B2, in the test on hESCs [2], the “fraction of cells expressing CXCR4” value stood at 70% and the “fraction of cells expressing PDGFR” value came out at 7%. Also, the “expression of neuroectoderm markers Sox1, Sox3, Nestin and NGN2” value in the test on hESC derived EBs (addition to EB cultures) is given as “decreasing expression”.
